# Experimental data: patent US8771652B2, “Methods of blocking ultraviolet radiation and promoting skin growth using terpenes and terpenoids” (New York University, priority 2009, dated 2014)
# Read-outs that look alike come from different tables or passages of the source.
# Key:
# [1] = tested on: skin of SKH1 hairless mice; assay: Sunburn (erythema) prevention by terpenes with solar-spectrum UVR exposure; assay type: in vivo, mouse; conditions: 4 daily 30 microL droplets before 15 minute exposure to 3.0 kJ/m2 UVR
# Description: All experiments were performed with female hairless mice (SKH1) utilizing solar spectrum ultraviolet radiation (UVR). Each experiment was performed in triplicate including controls and UVR-exposed mice and included a total of 22 mice per experiment for a total of 66 mice. The protocol included untreated mice, UVR-irradiated mice as controls for the terpene treatments, UVR+terpene mice and terpene-only mice.
# Four solar simulating FS-20 fluorescent lamps were used to deliver 3 kJ/m^2 measured by a calibrated International Light UV radiometer at the lamp distance between 20 to 24 cm. The UVR dose was selected to be just above the minimal erythemal dose for producing a ‘sunburn’ reaction in mouse skin (this is very similar to the minimal erythemal dose of fair-skinned humans).
# Each terpene was given to each mouse per os (by mouth) in 15-30 μL droplets (˜15-30 μg) via micropipette once each day for 4 consecutive days prior to and/or subsequent to UVR exposure. Animals were observed and photographed every 24 hours for a period of 6-7 days after the irradiation. Each terpene was administered in pure form. […] The UVR exposure of 3 kJ/m^2 was delivered seven (7) days after the last dose was administered. The animals were observed and photographed. […] Liponeate, a triglyceride fraction of coconut oil was used as a diluent. Concentration 1, 10 and 100% were tested. […]
# [2] = at concentrations in normal strength grapefruit juice (approximately 0.0035%, or 35 ppm); cited from earlier work
# [3] = tested on: gene expression in mouse dorsal skin; assay: Affymetrix gene expression microarray of mouse skin after terpene and UVR; assay type: in vivo; conditions: for loricrin and vascular endothelial growth factor (VEGF) genes / matrix metalloproteinases: ingestion, animal models; for inflammation genes induced by UVR: per os daily for 4 days in 30 microL droplets prior to irradiation
# Description: Animals for the histology and microarray analysis were euthanized 24 hours after 4 days of terpene pre-feed and the UVR exposure.
# Gene expression microarray analysis was performed as follows: RNA was extracted from a 0.1 g sample of mouse skin and an equal quantity of keratinocytes by using the TRIZOL reagent (Invitrogen, Carlsbad, Calif., USA) according to the manufacture's instructions and 200 μg of total RNA was used for the isolation of poly A+ mRNA by using Oligotex mRNA mini columns (QIAGEN, Valencia, Calif., USA). The final centrifugation was performed after the incubation with 1/10 volume of 3.0 M NaOAc, 2.5 volumes of ethanol and 1 μl glycogen (Boehringer Mannheim GmbH, Mannheim, Germany) at −20° C. overnight. Then the pellet was resuspended in diethylpyrocarbonate (DEPC)-treated water. RNA was labeled with biotin and hybridized to a Mouse genome 430—2 GeneChip® microarray (Affymetrix, Inc. Santa Clara, Calif., USA). Data from the Affymetrix mouse expression array chip were imported into the BRB-ArrayTools Version 3.3.0 developed by the Biometric Research Branch of the U.S. National Cancer Institute for normalization and analysis. […] A value of P≦0.001 was chosen as statistically significant. […] For these calculations the entire list of genes on the Affymetrix (mouse 430—2) microarray was used as the reference list.
# Mice were treated with either UVR or UVR+beta-damascenone, and samples of tissue were removed from the dorsal skin for RNA extraction and analysis on an Affymetrix Microarray System utilizing mouse whole genome array chips Affy 430—2. The UVR sample served as the control in this preliminary experiment.
# [4] = tested on: epidermis (keratinocytes, keratin layer) of SKH1 hairless mice; assay: Histology of skin after terpene pre-feed and UVR; assay type: in vivo, mouse; conditions: for keratinocyte formation: ingestion, animal models
# Description: Histopathological diagnosis was performed on the skin samples.
# Animals for the histology and microarray analysis were euthanized 24 hours after 4 days of terpene pre-feed and the UVR exposure. Tissue samples from skin and other organs were frozen and prepared for histological diagnosis and for microarray analysis, which consisted of testing gene expression by utilizing Affymetrix mouse microarray chips containing about 39,000 transcripts with 45,101 probe sets.
# [5] = tested on: inflammation-relevant gene expression in rat skin; conditions: cited from earlier work
# breast cancer = conditions: rats, without any evidence of toxicity; cited from earlier work
# [6] = in vivo; cited from earlier work
# skin [7] = conditions: mouse, in vivo; cited from earlier work
# skin [8] = conditions: guinea pig, in vivo; cited from earlier work
# skin [9] = conditions: in vivo; cited from earlier work
# skin [10] = conditions: in vivo; cited from earlier work; remark: listed apart in the source
# colon cancer = conditions: rats, 8 mg/kg, p<0.01; cited from earlier work
# [11] = tested on: human transplanted pancreatic adenocarcinomas; conditions: in vivo; cited from earlier work
# melanoma cells = conditions: topical pretreatment but not post-treatment; cited from earlier work
# [12] = tested on: UVB-induced non-melanoma tumors; conditions: mouse, in vivo; cited from earlier work
molecule,measurement,setting,value
C=C(C)[C@@H]1CCC2=CC(=O)C[C@@H](C)[C@]2(C)C1 [nootkatone],cutaneous inflammation and erythema associated with UVR exposure,[1],blocked
same,toxicity,[2],does not appear to be toxic
same,loricrin and vascular endothelial growth factor (VEGF) genes,[3],upregulation
same,matrix metalloproteinases,[3],downregulation
same,inflammation genes induced by UVR,[3],blocked
same,keratinocyte formation,[4],increased keratinocyte formation
vitamin A,inflammation-relevant gene expression alterations caused by x-rays blocked,[5],about 80%
same,gene expression in controls,[5]; unirradiated controls,no effect
C=C(C)[C@H]1CC=C(C)CC1 [d-limonene],initiation of breast cancer,breast cancer,almost completely prevented
C/C=C/C(=O)C1=C(C)C=CCC1(C)C [beta-damascenone],cutaneous inflammation and erythema associated with UVR exposure,[1],blocked
same,LD50,[6],greater than 2.0 g/kg
same,skin irritation,skin [7],No skin irritation
same,significantly altered up-regulated category at level 4 of the Gene Ontology Tree,"[3]; UVR+terpene relative to UVR only, p<0.05",epidermal cell differentiation
same,loricrin and vascular endothelial growth factor (VEGF) genes,[3],upregulation
same,matrix metalloproteinases,[3],downregulation
same,inflammation genes induced by UVR,[3],blocked
same,inflammation-relevant genes,[3]; terpene+UVR relative to UVR only,strongly down-regulated
same,number of gene categories significantly down-regulated,"[3]; terpene+UVR relative to UVR only, p<0.05",13 categories
same,skin irritation,skin [8],No skin irritation
same,phototoxicity or photoallergenity,skin [9],No phototoxicity or photoallergenity
same,skin irritation,skin [10],No skin irritation
same,"keratinizing layer in the epidermis, terpene+UVR in comparison to UVR",[4]; histological observations,greatly increased
same,keratinocyte formation,[4],increased keratinocyte formation
Oc1ccc(C=Cc2cc(O)cc(O)c2)cc1 [resveratrol],inhibition of colon cancer,colon cancer,67%
CC(C)=CCC/C(C)=C/CO [Geraniol],effectiveness against tumor growth relative to perillyl alcohol,[11],about 5 fold
C=C(C)[C@@H]1CC=C(CO)CC1 [perillyl alcohol],levels of UV-induced reactive oxygen species,melanoma cells,markedly reduced
same,initiation of breast cancer,breast cancer,almost completely prevented
same,UVB-induced non-melanoma tumors,[12],reduction
